{
  "source": "patent US8592425B2",
  "about": "“Imidazo[1,2-a]pyridines and imidazo[1,2-b]pyridazines as mark inhibitors” (Merck Sharp & Dohme Corp., priority 2009, dated 2013)",
  "note": "Where a name gives a salt, the structure may show the parent alone.",
  "data": [
    {"target": "recombinant MARK3 enzyme (Homo sapiens (Human), UniProt P27448)", "sequence (P27448 whole entry, species assumed)": "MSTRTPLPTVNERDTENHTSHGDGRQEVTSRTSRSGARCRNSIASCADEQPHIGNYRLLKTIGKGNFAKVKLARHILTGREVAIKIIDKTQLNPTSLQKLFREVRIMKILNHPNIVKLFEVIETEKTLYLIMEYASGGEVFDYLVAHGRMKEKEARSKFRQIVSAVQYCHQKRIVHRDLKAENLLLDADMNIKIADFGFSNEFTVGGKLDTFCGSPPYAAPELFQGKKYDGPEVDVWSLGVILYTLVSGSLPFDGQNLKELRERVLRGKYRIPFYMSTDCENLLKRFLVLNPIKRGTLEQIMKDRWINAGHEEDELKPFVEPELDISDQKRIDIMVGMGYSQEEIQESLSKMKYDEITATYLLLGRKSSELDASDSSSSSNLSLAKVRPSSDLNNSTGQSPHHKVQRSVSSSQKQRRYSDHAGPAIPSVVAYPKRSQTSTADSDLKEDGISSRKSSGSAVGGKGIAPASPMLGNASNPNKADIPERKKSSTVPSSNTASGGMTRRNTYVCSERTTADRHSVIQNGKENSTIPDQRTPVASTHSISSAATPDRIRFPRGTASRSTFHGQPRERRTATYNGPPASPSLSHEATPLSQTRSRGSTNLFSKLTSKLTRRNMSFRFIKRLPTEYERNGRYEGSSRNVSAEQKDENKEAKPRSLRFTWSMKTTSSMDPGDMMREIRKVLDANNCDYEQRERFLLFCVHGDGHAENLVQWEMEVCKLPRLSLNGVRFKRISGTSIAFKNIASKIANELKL", "assay": "MARK 3 Assay (HTRF, Cdc25C biotinylated peptide substrate)", "format": "biochemical", "conditions": "MARK3, 10 μM ATP, 1 μM peptide substrate, 2 hours at 25° C.", "description": "MARK3 activity was assayed in vitro using a Cdc25C biotinylated peptide substrate (Cell Signalling Technologies). The phosphopeptide product was quantitated using a Homogenous Time-Resolved Fluorescence (HTRF) assay system (Park et al., 1999, Anal. Biochem. 269:94-104). The reaction mixture contained 50 mM HEPES/Tris-HCl, pH 7.4; […], 5 mM MgCl2, 0.2 mM NaVO4, 5 mM 3-glycerol phosphate, 0.1% Tween-20, 2 mM dithiothreitol, 0.1% BSA, 10 μM ATP, 1 μM peptide substrate, and 10 nM recombinant MARK3 enzyme (University of Dundee) in a final volume of 12 μL. The buffer additionally contained protease inhibitor cocktail (Roche EDTA-free, 1 tab per 50 ml). The kinase reaction was incubated for 2 hours at 25° C., and then terminated with 3 μl Stop/Detection Buffer (50 mM HEPES, pH 7.0, 16.6 mM EDTA, 0.5M KF, 0.1% Tween-20, 0.1% BSA, 2 μg/ml SLX^ent 665 (CISBIO), and 2 μg/mL Eu^3+ cryptate label antibody (CISBIO)). The reaction was allowed to equilibrate overnight at 0° C., and relative fluorescent units were read on an HTRF enabled plate reader (e.g. TECAN GENios Pro).\nInhibitor compounds were assayed in the reaction described above to determine compound IC50s. Aliquots of compound dissolved in DMSO were added to the reaction wells in a third-log dilution series covering a range of 1 nM to 10 μM. Relative phospho substrate formation, read as HTRF fluorescence units, was measured over the range of compound concentrations and a titration curve generated.", "units": {"IC50": "nM"}, "values": [
      {"compound": "Cc1sc(C(=O)N[C@@H]2[C@H](N)CCCC2(F)F)cc1-c1cnc2cccnn12", "note": "[Example 1, N-[(1R,6R)-6-Amino-2,2-difluorocyclohexyl]-4-(imidazo[1,2-b]pyridazin-3-yl)-5-methylthiophene-2-carboxamide]", "IC50": 20},
      {"compound": "N[C@@H]1CCCC(F)(F)[C@@H]1NC(=O)c1cc(-c2cnc3cc(-c4ccc(F)cc4)cnn23)cs1", "note": "[Example 8, (1R,2R)-3,3-difluoro-2-[({4-[7-(4-fluorophenyl)imidazo[1,2-b]pyridazin-3-yl]thiophen-2-yl}carbonyl)amino]cyclohex-anaminium trifluoroacetate]", "IC50": 0.5},
      {"compound": "N[C@H]1CCCC(F)(F)[C@@H]1NC(=O)c1cc(-c2cnc3ccccn23)cs1", "note": "[Example 14, N-[(1R,6S)-6-amino-2,2-difluorocyclohexyl]-4-(imidazo[1,2-a]pyridin-3-yl)thiophene-2-carboxamide]", "IC50": 15},
      {"compound": "CCc1sc(C(=O)N[C@@H]2[C@H](N)CCCC2(F)F)cc1-c1cnc2cc(C(F)(F)F)cnn12", "note": "[Example 24, N-[(1R,6R)-6-amino-2,2-difluorocyclohexyl]-5-ethyl-4-[7-(trifluoromethyl)imidazo[1,2-b]pyridazin-3-yl]thiophene-2-carboxamide]", "IC50": 140},
      {"compound": "N[C@H]1CCCC(F)(F)[C@@H]1NC(=O)c1nc(-c2cnc3ccccn23)c(Cl)s1", "note": "[Example 29, N-[(1R,6S)-6-Amino-2,2-difluorocyclohexyl]-5-chloro-4-(imidazo[1,2-a]pyridin-3-yl)-1,3-thiazole-2-carboxamide]", "IC50": 720}
    ]},
    {"system": "phosphorylation of Tau at S262 in primary cell culture of rat cortical neurons induced by Okadaic acid", "assay": "pTau(S262) Cell Biochemical and Functional Assay", "format": "cell-based", "conditions": "Cortical neurone, Okadaic acid 200 nM, 1.5 hrs, read-out: IC50, inhibition of phosphorylation of Tau at S262", "description": "The cell biochemical potency of the below described MARK inhibitors was evaluated by measuring their ability to block the phosphorylation of Tau at S262 in primary cell culture of rat cortical neurons induced by the action of Okadaic acid.\n• 1. Store tissue at 4° C. (1-2 days) until ready to use. • 2. When ready to plate, make up 2 mL of enzymatic solution in Hibernate-Ca containing 1× papain. Filter sterile solution with 0.2 μm filter. • 3. Transfer 2 mL of medium from tissue tube into 15 mL falcon tube while not disturbing tissue. Save media. • 4. Add 2 mL enzymatic media (2) to tissue. Incubate for 30′ at 37° C. • 5. Remove enzymatic solution while not disturbing tissue. Add back 1 mL of media from (3). • 6. Using pipettor with sterile plastic tip, triturate ˜10 times until most of the cells are dispersed. • 7. Let undispersed pieces settle by gravity 1 minute. • 8. Transfer dispersed cells (supernatant) into 15 mL falcon tube containing 1 mL media from (3). Gently mix cells by swirling. • 9. Spin cells at 1,100 rpm for 1 minute. Remove supernatant. • 10. Flick tube to loosen cell pellet. Resuspend cells in 5 mL of NB. • 11. Transfer to new 50 mL falcon tube using 40 μm cell strainer. Rinse 15 mL falcon tube with 5 mL media, add to strainer. • 12. Count cells using hemacytometer. • 13. Dilute cells to 7,000 cells/100 μL/well in NB. • 14. Incubate cells at 37° C. with 5% CO2. • a. 4 DIV: Replace ½ volume (50 μL) NB per well. • b. 6 DIV: Neurite Assay. Tissue Culture/Compound Treatment\nPrimary rat cortical neurons plated @ 6Kcells/well in 384-well black/clear bottom Poly D-Lysine coated BD Falcon Biocoat plates. • Media: Neurobasal+1× B27+2 mM L-Glutamine (+10% FBS) at time of plating\nCells maintained at 37° C. and 5% CO2 for *6 days in culture, w/½ media change every 3-4 days.\nCompound treatment: • Prepare first plate: 200× compound in 100% DMSO with subsequent 3 fold serial dilution • Prepare intermediate plate: 1:40 dilution of 200× compound in media (2.5% DMSO) • Add 5× compound to cell in media at 1:5 dilution (0.5% final DMSO) • Incubate for 30 min. at 37° C.\nOkadaic Acid (OA) Treatment: • Dilute OA stock (240 μM in 100% DMSO) to 6× final concentration in media (0.5% DMSO) • Add 6× OA to cells at 1:6 dilution (200 nM final). Incubate for 1.5 hrs. at 37° C. Fix and Immunostaining\nFix: 1% PFA, diluted in PBS • Wash 1× with PBS, residual 30 μl/well.\nAdd 30 μL/well warmed 2% PFA and incubate 30 min. at RT (1% PFA final)\nWash 3× with PBS, 300/well residual […]", "units": {"IC50": "µM"}, "values": [
      {"compound": "Cc1sc(C(=O)N[C@H]2CCS(=O)(=O)C[C@H]2N)cc1-c1cnc2cccnn12", "note": "(relative stereo) [Example 10, N-[cis-3-amino-1,1-dioxidotetrahydro-2H-thiopyran-4-yl]-4-(imidazo[1,2-b]pyridazin-3-yl)-5-methylthiophene-2-carboxamide]", "IC50": "> 10"},
      {"compound": "Cc1sc(C(=O)NC2CS(=O)(=O)CC[C@H]2N)cc1-c1cnc2cccnn12", "note": "(stereo partly drawn) [Example 9]", "IC50": "> 10"},
      {"compound": "Cc1sc(C(=O)N[C@@H]2[C@H](N)CCCC2(F)F)cc1-c1cnc2ccccn12", "note": "[Example 15, N-[(1R,6R)-6-amino-2,2-difluorocyclohexyl]-4-(imidazo[1,2-a]pyridin-3-yl)-5-methylthiophene-2-carboxamide]", "IC50": "> 10"},
      {"compound": "N[C@@H]1CCCC(F)(F)[C@@H]1NC(=O)c1cc(-c2cnc3cccnn23)c(Cc2ccccc2)s1", "note": "[Example 19, N-[(1R,6R)-6-amino-2,2-difluorocyclohexyl]-5-benzyl-4-(imidazo[1,2-b]pyridazin-3-yl)thiophene-2-carboxamide]", "IC50": "> 10"}
    ]}
  ]
}
